Tests used:
MALME-3M = test: NCI 60 single concentration growth inhibition; format: cell-based, human; conditions: Melanoma, 10 μM
How it was run: (§1)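 Single-dose screen at 10 µM across the NCI-60 panel, then five concentrations (10-fold or ½ log dilutions) for selected compounds. Cells in RPMI 1640, 5% FBS, 2 mM L-glutamine, preincubated 24 h, then drug exposure 48 h at 37 °C. TCA fixation, SRB stain read at 515 nm; percent growth calculated against time-zero and untreated controls.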

UO-31 = test: NCI 60 single concentration growth inhibition; format: cell-based, human; conditions: UO-31, Renal cancer, 10 μM
How it was run: as §1

SNB-75 = test: NCI 60 single concentration growth inhibition; format: cell-based, human; conditions: SNB-75, CNS cancer, 10 μM
Method: (§2) The synthesized dichlorobenzimidazoles 10a–p were assayed for their influence on divers cancer cell lines according to the method presented in the Additional file A.
(§3) 5. Screening of cytotoxic activity against a panel of sixty human tumor cell lines
(§4) The selected compounds by NCI were evaluated for their anticancer activity in a two-stage process. First, these compounds were screened against the full NCI 60 cell lines panel at a single high dose of 10 µM. Then, the output from the single dose screen is reported as a mean graph. […]
(§5) Assay protocol. The human tumor cell lines of the cancer screening panel are grown in RPMI 1640 medium containing 5% fetal bovine serum and 2 mM L-glutamine. For a typical screening experiment, cells are inoculated into 96 well microtiter plates in 100 µL at plating densities ranging from 5000 to 40,000 cells/well depending on the doubling time of individual cell lines. After cell inoculation, the microtiter plates are incubated at 37 °C, 5% CO 2, 95% air and 100% relative humidity for 24 h prior to addition of the experimental drugs.
(§6) After 24 h, two plates of each cell line are fixed in situ with TCA, to represent a measurement of the cell population for each cell line at the time of drug addition (Tz). The experimental drugs are solubilized in dimethyl sulfoxide at 400-fold the desired final maximum test concentration and stored frozen prior to use. At the time of drug addition, an aliquot of frozen concentrate is thawed and diluted to twice the desired final maximum test concentration with complete medium containing 50 µg/mL gentamicin. Additional four, 10-fold or ½ log serial dilutions are made to provide a total of five drug concentrations plus control.
(§7) Aliquots of […] of these different drug dilutions are added to the appropriate microtiter wells already containing […] of medium, resulting in the required final drug concentrations.
(§8) Following drug addition, the plates are incubated for an additional 48 h at 37 °C, 5% CO 2, 95% air, and 100% relative humidity. For adherent cells, the assay is terminated by the addition of cold TCA.
(§9) Cells are fixed in situ by the gentle addition of 50 µL of cold 50% (w/v) TCA (final concentration, 10% TCA) and incubated for 60 min at 4 °C. The supernatant is discarded, and the plates are washed five times with tap water and air dried. Sulforhodamine B (SRB) solution ([…]) at 0.4% (w/v) in 1% acetic acid is added to each well, and plates are incubated for 10 min at room temperature. After staining, unbound dye is removed by washing five times with 1% acetic acid and the plates are air dried. Bound stain is subsequently solubilized with 10 mM trizma base, and the absorbance is read on an automated plate reader at a wavelength of 515 nm. For suspension cells, the methodology is […]
(§10) the same except that the assay is terminated by fixing settled cells at the bottom of the wells by gently adding 50 µl of 80% TCA (final concentration, 16% TCA). Using the seven absorbance measurements [time zero, (Tz), control growth, (C), and test growth in the presence of drug at the five concentration levels (Ti)], the percentage growth is calculated at each of the drug concentrations […]
(§11) Percentage growth inhibition is calculated as: [(Ti Tz)/(C–Tz)] x 100 for concentrations for which Ti>/=Tz and [(Ti-Tz)/Tz] x 100 for concentrations for which Ti < Tz. […]
(§12) Results for each compound were reported as a mean graph of the percent growth of the treated cells when compared to the untreated control cells. There after obtaining the results for one dose assay, analysis of historical Development Therapeutics Programme (DTP) was performed and compounds which satisfies predetermined threshold inhibition criteria is selected for NCI full panel 5 dose assay.

SW-620 = test: NCI 60 single concentration growth inhibition; format: cell-based, human; conditions: SW-620, Colon cancer; for GI%: 10 μM; for inhibition at 10 µM: Homo sapiens, read-out: GI%
Method: as §2, §3, §4, §5, §6, §7, §8, §9, §10, §11, §12

NCI-H322M = test: NCI 60 single concentration growth inhibition; format: cell-based, human; conditions: Non-small cell lung cancer, 10 μM
Method: as §2, §3, §4, §5, §6, §7, §8, §9, §10, §11, §12

IGROV1 = test: NCI 60 single concentration growth inhibition; format: cell-based, human; conditions: IGROV1, Ovarian cancer, 10 μM
Method: as §2, §3, §4, §5, §6, §7, §8, §9, §10, §11, §12

K-562 = test: NCI 60 single concentration growth inhibition; format: cell-based, human; conditions: for GI%: K-562, Leukemia, 10 μM; for inhibition at 10 µM: Homo sapiens, K562, K-562, Leukemia, read-out: GI%
Method: as §2, §3, §4, §5, §6, §7, §8, §9, §10, §11, §12

LOX IMVIL = test: NCI 60 single concentration growth inhibition; format: cell-based, human; conditions: Melanoma; for GI%: 10 μM; for inhibition at 10 µM: Homo sapiens, read-out: GI%
Method: as §2, §3, §4, §5, §6, §7, §8, §9, §10, §11, §12

HCT-15 = test: NCI 60 single concentration growth inhibition; format: cell-based, human; conditions: HCT-15, Colon cancer; for GI%: 10 μM; for inhibition at 10 µM: Homo sapiens, read-out: GI%
Method: as §2, §3, §4, §5, §6, §7, §8, §9, §10, §11, §12

NCI-H460 = test: NCI 60 single concentration growth inhibition; format: cell-based, human; conditions: NCI-H460, Non-small cell lung cancer; for GI%: 10 μM; for inhibition at 10 µM: Homo sapiens, read-out: GI%
Method: as §2, §3, §4, §5, §6, §7, §8, §9, §10, §11, §12

U251 = test: NCI 60 single concentration growth inhibition; format: cell-based, human; conditions: for GI%: U251, CNS cancer, 10 μM; for inhibition at 10 µM: Homo sapiens, U-251, U251, CNS cancer, read-out: GI%
Method: as §2, §3, §4, §5, §6, §7, §8, §9, §10, §11, §12

COLO 205 = test: NCI 60 single concentration growth inhibition; format: cell-based, human; conditions: COLO 205, Colon cancer; for GI%: 10 μM; for inhibition at 10 µM: Homo sapiens, read-out: GI%
Method: as §2, §3, §4, §5, §6, §7, §8, §9, §10, §11, §12

TK-10 = test: NCI 60 single concentration growth inhibition; format: cell-based, human; conditions: TK-10, Renal cancer; for GI%: 10 μM; for inhibition at 10 µM: Homo sapiens, read-out: GI%
Method: as §2, §3, §4, §5, §6, §7, §8, §9, §10, §11, §12

[1] = system: NCI 60 cancer cell line panel; test: NCI 60 single concentration growth inhibition, panel mean; format: cell-based; conditions: Homo sapiens, mean over NCI 60 panel, read-out: Mean GI%
Method: as §2, §3, §4
at five different minimal concentrations.
as §5, §6, §7, §8, §9, §10
Percentage growth inhibition is calculated as: [(Ti Tz)/(C–Tz)] x 100 for concentrations for which Ti>/=Tz and [(Ti-Tz)/Tz] x 100 for concentrations for which Ti < Tz.
Three dose response parameters are calculated for each experimental agent. Growth […]
concentration resulting in a 50% reduction in the net protein increase (as measured by SRB staining) in control cells during the drug incubation. The drug concentration resulting in total growth inhibition (TGI) is calculated from Ti = Tz. […]
reduction in the measured protein at the end of the drug treatment as compared to that at the beginning) indicating a net loss of cells following treatment is calculated from [(Ti–Tz)/Tz] x 100 =
_50. Values are calculated for each of these three parameters if the level of activity is reached; […]

| Molecule | inhibition at 10 µM [1] [%] | inhibition at 10 µM (SW-620) [%] | inhibition at 10 µM (K-562) [%] | inhibition at 10 µM (LOX IMVIL) [%] | inhibition at 10 µM (HCT-15) [%] | inhibition at 10 µM (NCI-H460) [%] | inhibition at 10 µM (U251) [%] | inhibition at 10 µM (COLO 205) [%] | inhibition at 10 µM (TK-10) [%] | also measured |
| --- | --- | --- | --- | --- | --- | --- | --- | --- | --- | --- |
| 2-(5-((2-(2-(5,6-Dichloro-2-(4-methoxyphenyl)-1H-benzo[d]imidazol-1-yl)acetyl)hydrazono)methyl)-2-methoxyphenoxy)acetic acid [Compound 10n] |  |  |  |  |  |  |  |  |  | GI% (MALME-3M): – (GI% < 5%); GI% (UO-31): 13.00%; GI% (SNB-75): – (GI% < 5%); GI% (SW-620): – (GI% < 5%); GI% (NCI-H322M): – (GI% < 5%); GI% (IGROV1): – (GI% < 5%); GI% (K-562): – (GI% < 5%); GI% (LOX IMVIL): 10.35%; GI% (HCT-15): – (GI% < 5%); GI% (NCI-H460): – (GI% < 5%); GI% (U251): – (GI% < 5%); GI% (COLO 205): – (GI% < 5%); GI% (TK-10): – (GI% < 5%) |
| 3-(4-((2-(2-(5,6-Dichloro-2-(4-methoxyphenyl)-1H-benzo[d]imidazol-1-yl)acetyl)hydrazono)methyl)phenoxy)propanoic acid [Compound 10i] |  |  |  |  |  |  |  |  |  | GI% (MALME-3M): – (GI% < 5%); GI% (UO-31): 25.68%; GI% (SNB-75): 8.33%; GI% (SW-620): – (GI% < 5%); GI% (NCI-H322M): – (GI% < 5%); GI% (IGROV1): – (GI% < 5%); GI% (K-562): 10.25%; GI% (LOX IMVIL): 10.92%; GI% (HCT-15): 21.36%; GI% (NCI-H460): – (GI% < 5%); GI% (U251): 7.22%; GI% (COLO 205): – (GI% < 5%); GI% (TK-10): – (GI% < 5%) |
| COc1ccc(-c2nc3cc(Cl)c(Cl)cc3n2CC(=O)NN=Cc2cccc(O)c2)cc1 [Compound 10a, 2-(5,6-Dichloro-2-(4-methoxyphenyl)-1H-benzo[d]imidazol-1-yl)-N'-(3-hydroxybenzylidene)acetohydrazide] | 46.9 | 31.7 | 66 | 29 | 60 | 46.8 | 39.3 | 46 | 37.2 |  |
| COc1ccc(-c2nc3cc(Cl)c(Cl)cc3n2CC(=O)NN=Cc2ccc(OCC(=O)O)cc2)cc1 [Compound 10f, 2-(4-((2-(2-(5,6-Dichloro-2-(4-methoxyphenyl)-1H-benzo[d]imidazol-1-yl)acetyl)hydrazono)methyl)phenoxy)acetic acid] | < 5 | < 5 | < 5 | 8.41 | 6.73 | < 5 | < 5 | < 5 | < 5 |  |
| COc1ccc(-c2nc3cc(Cl)c(Cl)cc3n2CC(=O)NN=Cc2ccc(O)cc2)cc1 [Compound 10b, 2-(5,6-Dichloro-2-(4-methoxyphenyl)-1H-benzo[d]imidazol-1-yl)-N'-(4-hydroxybenzylidene)acetohydrazide] | 38.5 | 18.6 | 47.5 | 42.6 | 52.3 | 49.7 | 42.8 | 9.38 | 13.9 |  |
| COc1ccc(-c2nc3cc(Cl)c(Cl)cc3n2CC(=O)NN=Cc2ccc(O)c(OC)c2)cc1 [Compound 10l, 2-(5,6-Dichloro-2-(4-methoxyphenyl)-1H-benzo[d]imidazol-1-yl)-N'-(4-hydroxy-3-methoxybenzylidene)acetohydrazide] | 34.6 | 9.29 | 58.1 | 38.5 | 51.5 | 31 | 25.8 | < 5 | 16.2 |  |
| COc1ccc(-c2nc3cc(Cl)c(Cl)cc3n2CC(=O)NN=Cc2cccc(OC)c2)cc1 [Compound 10c, 2-(5,6-Dichloro-2-(4-methoxyphenyl)-1H-benzo[d]imidazol-1-yl)-N'-(3-methoxybenzylidene)acetohydrazide] | 28.1 | 10.2 | 46.5 | 30.3 | 44.2 | 23.7 | 26.6 | 8.17 | 5.88 |  |
| COc1ccc(C=NNC(=O)Cn2c(-c3ccc(OC)cc3)nc3cc(Cl)c(Cl)cc32)cc1 [Compound 10d, 2-(5,6-Dichloro-2-(4-methoxyphenyl)-1H-benzo[d]imidazol-1-yl)-N'-(4-methoxybenzylidene)acetohydrazide] | 44.6 | 32.3 | 58.7 | 24.7 | 62.9 | 47.2 | 38.6 | 42.7 | 34.9 |  |
| COC(=O)COc1cccc(C=NNC(=O)Cn2c(-c3ccc(OC)cc3)nc3cc(Cl)c(Cl)cc32)c1 [Compound 10g, Methyl-2-(3-((2-(2-(5,6-dichloro-2-(4-methoxyphenyl)-1H-benzo[d]imidazol-1-yl)acetyl)hydrazono)methyl)phenoxy)acetate] | 14.6 | < 5 | 21.3 | 19.1 | 21.4 | < 5 | < 5 | < 5 | < 5 |  |
